Results taken from patent US20260001834A1, “COMPOUND OR SALT THEREOF, LIPID COMPOSITION, PHARMACEUTICAL COMPOSITION, AND DELIVERY CARRIER” (FUJIFILM Corporation, priority 2023, published 2026).

Columns and labels:
[1] = Particle diameter and polydispersity index (PdI) of mRNA-encapsulating lipid nanoparticles; format: physicochemical; settings: EPO mRNA-encapsulating lipid nanoparticles, compound:DSPC:cholesterol:DMG-PEG2000=50:10:38.5:1.5; diluted with PBS
Description: (§1) The compounds shown in Table 9, 1,2-distearoyl-sn-glycero-3-phosphocholine (product name: COATSOME® MC-8080; NOF corporation) (hereinafter, DSPC), cholesterol (product name: Cholesterol HP; Nippon Seika Co., Ltd.), and 1,2-dimyristoyl-rac-glycero-3-(methylpolyoxyethylene 2000) (hereinafter, DMG-PEG2000) (product name: SUNBRIGHT® GM-020; NOF corporation) were dissolved in ethanol at a molar ratio (mol %) of compounds shown in Table 9:1,2-distearoyl-sn-glycero-3-phosphocholine:cholesterol:DMG-PEG2000=50:10:38.5:1.5 such that the total lipid concentration was 12.5 mmol/L, thereby obtaining an oil phase.
(§2) EPO mRNA (product name: CleanCap EPO mRNA (5moU); TriLink) was diluted with 50 mmol/L citrate buffer having a pH 4.0 such that the weight ratio of total lipid concentration to mRNA concentration is about 20:1, thereby obtaining a water phase. Then, the water phase and the oil phase were mixed together using NanoAssemblr (Precision NanoSystems) such that the volume ratio of water phase:oil phase was 3:1, and the mixed solution was 2-fold diluted with phosphate buffered physiological saline (PBS) or water, thereby obtaining a dispersion liquid of mRNA lipid nanoparticles. The dispersion liquid was dialyzed with 20 mM Tris buffer solution containing 8% sucrose using a dialysis cassette (Slide-A-Lyzer G2, MWCO: 10 kD, Thermo Fisher Scientific) to remove ethanol, thereby obtaining EPO mRNA-encapsulating lipid nanoparticles.
The particle diameter and the polydispersity index (PdI) of the mRNA-encapsulating lipid nanoparticles were obtained by measuring a dispersion liquid of lipid nanoparticles diluted with phosphate buffered physiological saline (PBS) using a particle size analyzer NanoSAQLA (Otsuka Electronics Co., Ltd.).

[2] = Encapsulation rate of mRNA in lipid nanoparticles; format: physicochemical; settings: EPO mRNA-encapsulating lipid nanoparticles, compound:DSPC:cholesterol:DMG-PEG2000=50:10:38.5:1.5
Description: as §1, §2
<Evaluation of Encapsulation Rate of mRNA> (Quantification of Total mRNA Concentration)
EPO mRNA was diluted with MilliQ water to prepare a diluted sample in 2-fold dilution series from 100 μg/mL to 3.1 μg/mL, and a standard solution for calibration was prepared. 50 μL of the standard solution for calibration or the mRNA lipid nanoparticles was mixed with 450 μL of methanol to prepare a measurement solution.
The absorbance of each measurement solution at 260 nm and 330 nm was measured using a UV plate reader (Multiskan Go, Thermo Fisher Scientific), the absorbance at 330 nm was subtracted from the absorbance at 260 nm, and the result was used as the absorbance of each measurement solution. The total water phase nucleic acid concentration was calculated from the calibration curve using the absorbance of each sample measurement solution.
(Quantification of mRNA Concentration in Outer Water Phase)
The concentration of the outer water phase nucleic acid was quantified by a standard addition method using a QuanT-iT RiboGreen RNA Assay Kit (Thermo Fisher Scientific). First, a 20×TE buffer included in the above kit was diluted with water, thereby obtaining a 1×TE buffer. TE represents Tris/EDTA (ethylenediaminetetraacetic acid). EPO mRNA was diluted with a TE buffer such that the final concentration was 0 to 400 ng/mL to prepare a nucleic acid diluted series. 10 μL of mRNA lipid nanoparticles diluted 5-fold with TE buffer and 90 μL of a nucleic acid dilution series were mixed in a 96-well plate, 100 μL of a Ribogreen reagent diluted 200-fold with TE buffer was added to each well, and then fluorescence (excitation wavelength: 485 nm, fluorescence wavelength: 535 nm) was measured using a fluorescence plate reader (Infinite 200 Pro M nano+, TECAN). From the obtained results, the outer water phase nucleic acid concentration of each measurement solution was calculated according to the standard addition method.
(Calculation of Encapsulation Rate)
By using the quantification results of the total mRNA concentration and the mRNA concentration in the outer water phase that were obtained through the above steps, the mRNA encapsulation rate of the mRNA lipid nanoparticles was calculated according to the following Equation.

ICR mice = experiment: EPO expression level in mice after intravenous EPO mRNA lipid nanoparticles (human EPO ELISA of plasma); format: in vivo; settings: mRNA dosage 0.1 mg/kg, plasma 6 hours after administration, Comparative Example set to 1
Description: as §1, §2
The dispersion liquid of mRNA lipid nanoparticles prepared in above <Preparation of EPO mRNA-encapsulating lipid nanoparticles> was intravenously administered to ICR mice at a mRNA dosage of 0.1 mg/kg. 6 hours after the administration, blood was collected from the caudal vena cava, thereby obtaining plasma. The human EPO […] was quantified by using the obtained blood plasma and Erythropoietin (EPO) Human Elisa Kit (Abcam.plc). The quantitative value is described as a relative amount of EPO protein in a case where Comparative Example is set to 1.

Particle diameter (nm) [1] [nm] | PdI [1] | Nucleic acid encapsulation rate [2] [%] | Compound | Relative amount of EPO protein (with respect to Comparative Example 1) (ICR mice)
79 | 0.15 | 95 | CCCCCCCCCC(CCCCCCCCC)C(=O)OCCN(CCOC(=O)OC(CCCCCC)CCCC(=O)OCCCCCCC)CCN(CC)CC (stereo not drawn) [Compound 17, heptyl 3-ethyl-12-hexyl-6-(2-((2-nonylundecanoyl)oxy)ethyl)-10-oxo-9,11-dioxa-3,6-diazahexadecan-16-oate] | 1.91
77 | 0.13 | 85 | CCCCCCCC(CCCCCCC)CC(=O)OCCN(CCOC(=O)OC(CCCCCC)CCCC(=O)OCC(CCCCC)CCCCC)CCN(CC)CC (stereo not drawn) [Compound 9, 2-pentylheptyl 3-ethyl-6-(2-((3-heptyldecanoyl)oxy)ethyl)-12-hexyl-10-oxo-9,11-dioxa-3,6-diazahexadecan-16-oate] | 2.30
112 | 0.03 | 89 | CCCCCCCCOC(=O)CCCCCCCCC(CCCCCC)OC(=O)OCCN(CCOC(=O)C(CCCC)CCCCCC)CCN(CC)CC (stereo not drawn) [Compound 1, octyl 6-(2-((2-butyloctanoyl)oxy)ethyl)-3-ethyl-12-hexyl-10-oxo-9,11-dioxa-3,6-diazahenicosan-21-oate] | –
95 | 0.10 | 94 | CCCCCCCOC(=O)CCCCC(CCCCCC)OC(=O)OCCN(CCCN(CC)CC)CCOC(=O)C(CCCCCCC)CCCCCCC (stereo not drawn) [Compound 22, heptyl 3-ethyl-7-(2-((2-heptylnonanoyl)oxy)ethyl)-13-hexyl-11-oxo-10,12-dioxa-3,7-diazaoctadecan-18-oate] | 6.09
91 | 0.09 | 94 | CCCCCCCCC(CCCCCC)C(=O)OCCN(CCOC(=O)OC(CCCCCC)CCCC(=O)OCCCCCCC)CCN(CC)CC (stereo not drawn) [Compound 19, heptyl 3-ethyl-12-hexyl-6-(2-((2-hexyldecanoyl)oxy)ethyl)-10-oxo-9,11-dioxa-3,6-diazahexadecan-1 6-oate] | 4.31
89 | 0.12 | 78 | CCCCCCCCOC(=O)CCCC(CCCCCC)OC(=O)OCCN(CCOC(=O)CC(CCCCCCC)CCCCCCC)CCN(CC)CC (stereo not drawn) [Compound 8, octyl 3-ethyl-6-(2-((3-heptyldecanoyl)oxy)ethyl)-12-hexyl-10-oxo-9,11-dioxa-3,6-diazahexadecan-16-oate] | 3.79
98 | 0.11 | 77 | CCCCCCCOC(=O)CCCC(CCCCCC)OC(=O)OCCN(CCOC(=O)CC(CCCCCCC)CCCCCCC)CCN(CC)CC (stereo not drawn) [Compound 6, heptyl 3-ethyl-6-(2-((3-heptyldecanoyl)oxy)ethyl)-12-hexyl-10-oxo-9,11-dioxa-3,6-diazahexadecan-16-oate] | 4.91
118 | 0.07 | 79 | heptyl 3-ethyl-12-hexyl-6-(2-((2-hexyloctanoyl)oxy)ethyl)-10-oxo-9,11-dioxa-3,6-diazahexadecan-1 6-oate [Compound 5] | 2.28
103 | 0.03 | 90 | CCCCCCOC(=O)CCCCCCCCC(CCCCCC)OC(=O)OCCN(CCOC(=O)C(CCCCCC)CCCCCC)CCN(CC)CC (stereo not drawn) [Compound 2, hexyl 3-ethyl-12-hexyl-6-(2-((2-hexyloctanoyl)oxy)ethyl)-10-oxo-9,11-dioxa-3,6-diazahenicosan-21-oate] | 1.61
85 | 0.12 | 90 | CCCCCCCCC(CCCCCCCC)C(=O)OCCN(CCOC(=O)OC(CCCCCC)CCCC(=O)OCCCCCCC)CCN(CC)CC (stereo not drawn) [Compound 4, heptyl 3-ethyl-12-hexyl-6-(2-((2-octyldecanoyl)oxy)ethyl)-10-oxo-9,11-dioxa-3,6-diazahexadecan-1 6-oate] | 3.09
79 | 0.13 | 95 | CCCCCCCCCCC(CCCCCCCCCC)C(=O)OCCN(CCOC(=O)OC(CCCCCC)CCCC(=O)OCCCCCCC)CCN(CC)CC (stereo not drawn) [Compound 18, heptyl 6-(2-((2-decyldodecanoyl)oxy)ethyl)-3-ethyl-12-hexyl-10-oxo-9,11-dioxa-3,6-diazahexadecan-16-oate] | 1.30
75 | 0.10 | 86 | CCCCCCCC(CCCCCCC)CC(=O)OCCN(CCOC(=O)OC(CCCCCC)CCCC(=O)OCC(CCCCCC)CCCCCC)CCN(CC)CC (stereo not drawn) [Compound 10, 2-hexyloctyl 3-ethyl-6-(2-((3-heptyldecanoyl)oxy)ethyl)-12-hexyl-10-oxo-9,11-dioxa-3,6-diazahexadecan-16-oate] | 1.72
129 | 0.12 | 89 | CCCCCCCOC(=O)CCCCC(CCCCCC)OC(=O)OCCN(CCCN(CC)CC)CCOC(=O)C(CCCCCC)CCCCCC (stereo not drawn) [Compound 21, heptyl 3-ethyl-13-hexyl-7-(2-((2-hexyloctanoyl)oxy)ethyl)-11-oxo-10,12-dioxa-3,7-diazaoctadecan-1 8-oate] | 1.65
102 | 0.16 | 94 | CCCCCCCOC(=O)CCCCC(CCCCCC)OC(=O)OCCN(CCCN(CC)CC)CCOC(=O)CC(CCCCCCC)CCCCCCC (stereo not drawn) [Compound 25, heptyl 3-ethyl-7-(2-((3-heptyldecanoyl)oxy)ethyl)-13-hexyl-11-oxo-10,12-dioxa-3,7-diazaoctadecan-18-oate] | 4.77
82 | 0.12 | 79 | CCCCCCCCOC(=O)CCCC(CCCCCC)OC(=O)OCCN(CCOC(=O)C(CCCCCCC)CCCCCCC)CCN(CC)CC (stereo not drawn) [Compound 7, octyl 3-ethyl-6-(2-((2-heptylnonanoyl)oxy)ethyl)-12-hexyl-10-oxo-9,11-dioxa-3,6-diazahexadecan-16-oate] | 3.82
137 | 0.10 | 87 | CCCCCCCOC(=O)CCCC(CCCCCC)OC(=O)OCCN(CCCN(CC)CC)CCOC(=O)C(CCCCCC)CCCCCC (stereo not drawn) [Compound 20, heptyl 3-ethyl-13-hexyl-7-(2-((2-hexyloctanoyl)oxy)ethyl)-11-oxo-10,12-dioxa-3,7-diazaheptadecan-17-oate] | 1.68
